Broadly, the IC50 is the concentration that gives 50% inhibition. One may read the AUC(0-t) as exposure summed from dosing to a finite time, without extrapolation to infinity. A high value points to high exposure. Usually DC50 stands for the concentration at which degradation of the target reaches its halfway point. A word on the AUC: it is concentration integrated over time. Read a low AUC as less exposure. For orientation: half-life means the time needed for the level to fall by half in the phase considered. Low readings indicate fast loss, high ones slow loss.

The subject of series [1] is NCI-H1975 (EGFR-L858R-T790M) cells. The experiment in a line: Inhibitory activity on proliferation of NCI-H1975 (EGFR-L858R-T790M) cells (CTG, 72 h). In kind it is cell-based. The conditions noted are these: Homo sapiens. In outline:
(§1)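 Cells plated at 1000/well (NCI-H1975, RPMI1640+10% FBS) or 3000/well (A431, DMEM+10% FBS), dosed next day with compounds (0.1% DMSO final) for 72 h at 37 °C, 5% CO2. Viability by CTG luminescence, normalised to vehicle control; IC50 from nonlinear-regression dose-survival curves.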

Series [2] relates to A431 (EGFR-WT) cells. The experiment in a line: Inhibitory activity on proliferation of A431 (EGFR-WT) cells (CTG, 72 h). In kind it is cell-based. As to conditions: Homo sapiens, A-431. The method, boiled down:
as §1

Series [3] has as its system NCI-H1975 EGFR-L858R-T790M-C797S cells. The experiment in a line: Inhibitory activity on proliferation of NCI-H1975 EGFR-L858R-T790M-C797S cells (CellTiter-Glo, 72 h). The format is cell-based. The conditions noted are these: Homo sapiens. The protocol: NCI-H1975 EGFR-L858R-T790M-C797S cells were cultured in an incubator at 37° C. with 5% CO2, and the culture medium was RPMI1640+10% FBS+100 μg/mL hygromycin. The cells in the logarithmic phase were collected, and the cell suspension was adjusted to an appropriate concentration with a hygromycin-free culture medium, and then plated on a 96-well plate at a density of 1500 cells/well and a volume of 90 μL. 10 μL of the compounds at different concentrations were added, and a vehicle control group (cells plus DMSO) was provided, wherein the concentration of DMSO was 0.1%. The cell culture plate was cultured in an incubator at 37° C. with 5% CO2 for 72 hours. After the incubation was completed, according to operation instructions for a CellTiter-Glo kit (Promega, G7572), 50 μL of CTG solution, which was already pre-melted and equilibrated to room temperature, was added to each well, and the mixtures were uniformly mixed for 2 min using a microplate shaker. The plate was placed at room temperature for 10 min, and then […] signal values were measured using a microplate reader (Envision 2104). […] was processed based on formula (2), and using the GraphPad Prism 5.0 software and nonlinear regression model, S-shaped dose-survival curves were plotted, and IC50 values were calculated. wherein Vsample was the readout of the drug-treated group, and Vvehicle control was the readout of the control group.

Series [4] in a line: Pharmacokinetic test in mice. The format is in vivo. As to conditions: male, ICR, mouse, po, administration i.g. (10 mg/kg), plasma. In outline:
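Male ICR mice (20-25 g), fasted 12-14 h before dosing and fed 4 h after, received a single intravenous or intragastric dose. Orbital plasma sampled from 0 to 24 h (5 min-24 h points); LC-MS/MS quantitation for PK parameters and bioavailability.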

In series [5] the target is T1, EGFR protein in NCI-H1975 EGFR-L858R-T790M-C797S cells (Homo sapiens, UniProt P00533, C797S/L858R/T790M).
T1 construct: expressed in transfected cells; host or cells: NCI-H1975 EGFR-L858R-T790M-C797S (kept under hygromycin selection)
T1 sequence (P00533 25-1210 T790M/C797S/L858R): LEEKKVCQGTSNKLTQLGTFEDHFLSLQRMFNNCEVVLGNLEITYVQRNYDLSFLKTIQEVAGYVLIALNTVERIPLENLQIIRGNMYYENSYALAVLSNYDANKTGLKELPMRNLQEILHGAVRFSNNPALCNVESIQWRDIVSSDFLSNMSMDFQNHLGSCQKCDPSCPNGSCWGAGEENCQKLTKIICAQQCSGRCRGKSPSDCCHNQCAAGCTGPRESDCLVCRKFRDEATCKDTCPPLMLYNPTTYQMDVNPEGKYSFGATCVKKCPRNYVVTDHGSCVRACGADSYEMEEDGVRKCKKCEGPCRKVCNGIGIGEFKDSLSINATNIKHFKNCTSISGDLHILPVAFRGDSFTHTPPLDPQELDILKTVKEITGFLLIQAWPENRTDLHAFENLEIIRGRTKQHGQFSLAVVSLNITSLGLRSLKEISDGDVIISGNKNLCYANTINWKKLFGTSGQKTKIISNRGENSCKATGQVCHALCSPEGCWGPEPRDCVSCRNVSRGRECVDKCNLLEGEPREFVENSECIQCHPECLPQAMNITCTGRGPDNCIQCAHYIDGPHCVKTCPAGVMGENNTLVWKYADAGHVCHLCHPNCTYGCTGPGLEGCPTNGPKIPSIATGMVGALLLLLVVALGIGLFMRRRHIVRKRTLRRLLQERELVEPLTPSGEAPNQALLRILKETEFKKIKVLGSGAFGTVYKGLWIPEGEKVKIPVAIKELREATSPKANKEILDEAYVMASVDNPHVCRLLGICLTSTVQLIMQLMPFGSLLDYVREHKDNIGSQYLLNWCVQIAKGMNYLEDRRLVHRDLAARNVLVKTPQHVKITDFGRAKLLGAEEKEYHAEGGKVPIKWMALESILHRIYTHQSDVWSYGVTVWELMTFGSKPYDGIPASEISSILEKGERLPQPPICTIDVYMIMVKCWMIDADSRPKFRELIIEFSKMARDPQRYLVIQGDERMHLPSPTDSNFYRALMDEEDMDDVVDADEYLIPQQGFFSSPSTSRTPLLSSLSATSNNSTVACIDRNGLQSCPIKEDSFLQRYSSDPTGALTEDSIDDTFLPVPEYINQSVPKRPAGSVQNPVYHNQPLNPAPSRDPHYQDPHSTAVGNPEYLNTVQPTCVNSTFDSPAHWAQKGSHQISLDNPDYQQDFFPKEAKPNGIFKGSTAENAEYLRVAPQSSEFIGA
The experiment in a line: Degradation activity on EGFR protein in NCI-H1975 EGFR-L858R-T790M-C797S cells, Method I (western blot, 72 h). In kind it is cell-based. The conditions noted are these: 72 h incubation, EGFR protein relative to DMSO control. The protocol:
Protein sample preparation: NCI-H1975 EGFR-L858R-T790M-C797S cells were cultured in an incubator at 37° C. with 5% CO2, and the culture medium was RPMI1640+10% FBS+100 μg/mL hygromycin. The cells in the logarithmic phase were collected, and the cell suspension was adjusted to an appropriate concentration with a hygromycin-free culture medium, plated on a 6-well plate at a density of 200000 cells/well and a volume of 2 mL, and cultured overnight in an incubator at 37° C. with 5% CO2. The next day, the compounds at different concentrations were added. DMSO control wells were provided, wherein the concentration of DMSO in all wells was 0.1%. The 6-well plate was cultured in an incubator at 37° C. with 5% CO2 for 72 h, and then 30 μL of RIPA lysates (Beyotime, Cat. P0013B) containing protease inhibitors (Beyotime, Cat. P0013B) were added. The mixtures were lysed on ice for 30 min. Centrifugation was carried out at 13000 rpm/min at 4° C. for 20 min to collect protein supernatant samples, and protein quantification was performed by the BCA method. Samples for western blot detection were prepared.
Western blot detection: 20 μg of protein samples were added to each well, subjected to polyacrylamide gel electrophoresis and transferred to a membrane, and then diluted anti-EGFR (CST, Cat. 4267S) and […] (Kangchen, Cat. KC-5G4) antibodies were added and incubated overnight at 4° C. After washing the membrane, diluted goat anti-rabbit (Licor, Cat. 926-32211) and goat anti-mouse (Licor, Cat. 926-68070) antibodies were added and incubated in the dark for 45 min. Scanning and detection at wavelengths of 700 nm and 800 nm were performed with a far-infrared imaging system (Odyssey).
According to formula (3), the expression level of EGFR protein in the cells relative to the DMSO control group was calculated after incubation with different concentrations of compounds. wherein EGFRcompound was the fluorescence value of EGFR protein after incubation with compounds, and EGFRvehicle was the fluorescence value of EGFR protein in the DMSO control group. Using the Origin 9.2 software, the drug concentration DC50 values when the expression level of EGFR protein was 50% relative to the DMSO control group were calculated.
For orientation: A western blot detects proteins with antibodies after separation by electrophoresis.

[6] abbreviates: read-out: IC50 (value in brackets).

Read-outs that look alike come from different tables or passages of the source.

On to `COc1cc(N2CCN(C3CCN(c4ccc5c(c4)C(=O)N(C4CCC(=O)NC4=O)C5=O)CC3)CC2)c(-c2cnn(C)c2)cc1Nc1ncc(Br)c(Nc2ccc(-c3ccccc3)cc2P(C)(C)=O)n1` (stereo not drawn) [Compound 99, 5-(4-(4-(4-((5-bromo-4-((3-(dimethylphosphoryl)-[1,1′-biphenyl]-4-yl)amino)pyrimidin-2-yl)amino)-5-methoxy-2-(1-methyl-1H-pyrazol-4-yl)phenyl)piperazin-1-yl)piperidin-1-yl)-2-(2,6-dioxopiperidin-3-yl)isoindoline-1,3-dione], for which the IC50 is below 100 nM in series [1] (read-out: IC50 (class symbol)); 33 nM in series [1] (setting [6]); at least 10 µM in series [2]; below 200 nM in series [3] (read-out: IC50 (class symbol)); 57 nM in series [3] (read-out: IC50 (value)). The AUC(0-t) in series [4] amounted to 25000 ng·h/mL. In series [5], this compound returned a DC50 below 100 nM.

Consider `COc1cc(N2CCN(CC3CCN(c4ccc5c(c4)C(=O)N(C4CCC(=O)NC4=O)C5=O)CC3)CC2)c(-c2cnn(C)c2)cc1Nc1ncc(Cl)c(Nc2ccc(-c3ccccc3F)cc2P(C)(C)=O)n1` (stereo not drawn) [Compound 97, 5-(4-((4-(4-((5-chloro-4-((3-(dimethylphosphoryl)-2′-fluoro-[1,1′-biphenyl]-4-yl)amino)pyrimidin-2-yl)amino)-5-methoxy-2-(1-methyl-1H-pyrazol-4-yl)phenyl)piperazin-1-yl)methyl)piperidin-1-yl)-2-(2,6-dioxopiperidin-3-yl)isoindoline-1,3-dione], for which the IC50 in series [1] (read-out: IC50 (class symbol)) was below 100 nM; in series [1] (setting [6]), 62 nM; in series [2] it was at least 10 µM; in series [3] (read-out: IC50 (class symbol)) it was below 200 nM; in series [3] (read-out: IC50 (value)) it was 79 nM. Besides, the AUC(0-t) in series [4] came out at 42300 ng·h/mL. The compound further registered a DC50 in series [5] below 100 nM.

`COc1cc(N2CCC(N3CCN(c4ccc5c(c4)C(=O)N(C4CCC(=O)NC4=O)C5=O)CC3)CC2)c(-c2cnn(C)c2)cc1Nc1ncc(Br)c(Nc2ccc(-c3ccccc3)cc2P(C)(C)=O)n1` (stereo not drawn) [Compound 81, 5-(4-(1-(4-((5-bromo-4-((3-(dimethylphosphoryl)-[1,1′-biphenyl]-4-yl)amino)pyrimidin-2-yl)amino)-5-methoxy-2-(1-methyl-1H-pyrazol-4-yl)phenyl)piperidin-4-yl)piperazin-1-yl)-2-(2,6-dioxopiperidin-3-yl)isoindoline-1,3-dione]: the IC50 in series [1] (read-out: IC50 (class symbol)) is below 100 nM; in series [1] (setting [6]), 71 nM; in series [2], at least 10 µM; in series [3] (read-out: IC50 (class symbol)), below 200 nM; in series [3] (read-out: IC50 (value)), 49 nM. This compound also had an AUC(0-t) in series [4] of 51000 ng·h/mL. Also, the DC50 in series [5] was below 100 nM.

For the compound `COc1cc(N2CCN(CC3CCN(c4ccc5c(c4)C(=O)N(C4CCC(=O)NC4=O)C5=O)CC3)CC2)c(-c2cnn(C)c2)cc1Nc1ncc(Cl)c(Nc2ccc(-c3ccccc3)cc2P(C)(C)=O)n1` (stereo not drawn) [Compound 90, 5-(4-((4-(4-((5-chloro-4-((3-(dimethylphosphoryl)-[1,1′-biphenyl]-4-yl)amino)pyrimidin-2-yl)amino)-5-methoxy-2-(1-methyl-1H-pyrazol-4-yl)phenyl)piperazin-1-yl)methyl)piperidin-1-yl)-2-(2,6-dioxopiperidin-3-yl)isoindoline-1,3-dione], the IC50 in series [1] (read-out: IC50 (class symbol)) was below 100 nM; in series [1] (setting [6]) it was 46 nM; in series [2], at least 10 µM; in series [3] (read-out: IC50 (class symbol)), below 200 nM; in series [3] (read-out: IC50 (value)) it was 68 nM. This compound also came in with an AUC in series [4] of 35900 ng·h/mL. Moreover, in series [4], the half-life was 250 min. Besides, the DC50 in series [5] was below 100 nM.

As for `COc1cc(N2CCC(N3CCC4(CCN(c5ccc6c(c5)C(=O)N(C5CCC(=O)NC5=O)C6=O)CC4)CC3)CC2)c(-c2cnn(C)c2)cc1Nc1ncc(Br)c(Nc2ccc(-c3ccccc3)cc2P(C)(C)=O)n1` (stereo not drawn) [Compound 84, 5-(9-(1-(4-((5-bromo-4-((3-(dimethylphosphoryl)-[1,1′-biphenyl]-4-yl)amino)pyrimidin-2-yl)amino)-5-methoxy-2-(1-methyl-1H-pyrazol-4-yl)phenyl)piperidin-4-yl)-3,9-diazaspiro[5.5]undecan-3-yl)-2-(2,6-dioxopiperidin-3-yl)isoindoline-1,3-dione], the IC50 was below 100 nM in series [1] (read-out: IC50 (class symbol)); 43 nM in series [1] (setting [6]); at least 10 µM in series [2]; below 200 nM in series [3] (read-out: IC50 (class symbol)); 47 nM in series [3] (read-out: IC50 (value)). The compound further registered an AUC(0-t) in series [4] of 4570 ng·h/mL. Besides, the DC50 in series [5] was below 100 nM.

For `COc1cc(N2CCN(CC3CCN(c4ccc5c(c4)C(=O)N(C4CCC(=O)NC4=O)C5=O)CC3)CC2)c(-c2cnn(C)c2)cc1Nc1ncc(Br)c(Nc2ccc(-c3ccccc3F)cc2P(C)(C)=O)n1` (stereo not drawn) [Compound 96, 5-(4-((4-(4-((5-bromo-4-((3-(dimethylphosphoryl)-2′-fluoro-[1,1′-biphenyl]-4-yl)amino)pyrimidin-2-yl)amino)-5-methoxy-2-(1-methyl-1H-pyrazol-4-yl)phenyl)piperazin-1-yl)methyl)piperidin-1-yl)-2-(2,6-dioxopiperidin-3-yl)isoindoline-1,3-dione], the IC50 in series [1] (read-out: IC50 (class symbol)) is below 100 nM; in series [1] (setting [6]) it was 36 nM; in series [2], at least 10 µM; in series [3] (read-out: IC50 (class symbol)) it was below 200 nM; in series [3] (read-out: IC50 (value)) it was 60 nM. The compound further gave an AUC(0-t) in series [4] of 47000 ng·h/mL. In series [5], this compound yielded a DC50 below 100 nM.

Turning to `COc1cc(N2CCN(CC3CCN(c4ccc5c(c4)C(=O)N(C4CCC(=O)NC4=O)C5=O)C3)CC2)c(-c2cnn(C)c2)cc1Nc1ncc(Br)c(Nc2ccc(-c3ccccc3)cc2P(C)(C)=O)n1` (stereo not drawn) [Compound 67, 5-(3-((4-(4-((5-bromo-4-((3-(dimethylphosphoryl)-[1,1′-biphenyl]-4-yl)amino)pyrimidin-2-yl)amino)-5-methoxy-2-(1-methyl-1H-pyrazol-4-yl)phenyl)piperazin-1-yl)methyl)pyrrolidin-1-yl)-2-(2,6-dioxopiperidin-3-yl)isoindoline-1,3-dione], the IC50 was below 100 nM in series [1] (read-out: IC50 (class symbol)); 37 nM in series [1] (setting [6]); at least 10 µM in series [2]; below 200 nM in series [3] (read-out: IC50 (class symbol)); 115 nM in series [3] (read-out: IC50 (value)). This compound also yielded an AUC in series [4] of 70900 ng·h/mL. This compound showed a half-life in series [4] of 232 min. Moreover, in series [5], the DC50 was below 100 nM.

Consider `COc1cc(N2CCC(N3CCN(CC4CCN(c5ccc6c(c5)C(=O)N(C5CCC(=O)NC5=O)C6=O)CC4)CC3)CC2)c(C2CC2)cc1Nc1ncc(Br)c(Nc2ccc3nccnc3c2P(C)(C)=O)n1` (stereo not drawn) [Compound 2, 5-(4-((4-(1-(4-((5-bromo-4-((5-(dimethylphosphoryl)quinoxalin-6-yl)amino)pyrimidin-2-yl)amino)-2-cyclopropyl-5-methoxyphenyl)piperidin-4-yl)piperazin-1-yl)methyl)piperidin-1-yl)-2-(2,6-dioxopiperidin-3-yl)isoindoline-1,3-dione], for which the IC50 in series [1] (read-out: IC50 (class symbol)) was 100 to 500 nM; in series [1] (setting [6]), 151 nM; in series [2], at least 10 µM; in series [3] (read-out: IC50 (class symbol)), 200 to 500 nM; in series [3] (read-out: IC50 (value)) it was 299 nM. In series [5], the DC50 was below 100 nM.

For the origin of these results see patent US20240269298A1, “PHOSPHONYL DERIVATIVE, AND COMPOSITION AND PHARMACEUTICAL APPLICATION THEREOF” (XIZANG HAISCO PHARMACEUTICAL CO., LTD., priority 2021, published 2024).
